Test results published in US20210069230A1, “SYNERGISTIC DRUG COMBINATIONS PREDICTED FROM GENOMIC FEATURES AND SINGLE-AGENT RESPONSE PROFILES” (THE BROAD INSTITUTE, INC., priority 2018, published 2021).
Where two headings read alike, the source gives them in different places.

How the values were obtained:
[1] = system: WM2664 cells overexpressing ABCB1; assay: Lentiviral ORF overexpression, compound sensitivity (CellTiter-Glo, GR); assay type: cell-based; details: 72 hours
Protocol: (§1) Cell lines were taken from viably frozen stocks of the same original provenance as for CTRP and DepMap data, with identity confirmed by SNP-based DNA fingerprinting as described previously (12, 13, 39). Cell lines were propagated using the same media and culture conditions as for CTRPv2.0 experiments. […] For live-cell imaging, cells were plated into clear-bottom plates (Corning) and imaged on an IncuCyte S3 throughout the course of the experiment. For CellTiter-Glo experiments, the initial viability of a subset of plated cells was established at the same time as compound addition using CellTiter-Glo as described previously (24). […] DMSO- and D0-normalized concentration-response curves were generated using four-parameter nonlinear regression using the drc package in R (40). Biphasic curves were also fit and prioritized relative to standard four-parameter curves where appropriate using the BIC (Bayesian information criteria) metric. […] General-purpose optimization (Nelder-Mean algorithm) was used for single-agent fits, and the “model” option was used to predict variance. Overall significance was assessed using the bootstrapped meanR test (n=1000 iterations), and per-concentration significance using maxR, as described by the package authors.
(§2) Infection and selection were carried out according to GPP Viral Infection protocols, followed by cell seeding in 384-well plates for compound treatment or harvesting for Western blotting as described above.
(§3) Parental cell lines were virally transduced with cDNAs that constitutively overexpressed BCL2L1, AIFM2, or MGLL (in G402 and CJM cells); ABCB1 or MGMT (in WM2664 cells); SLC7A11 (in BT12 and G402 cells); MCL1 (in HCC1500 cells); or IRS2 (in T47D cells) and subsequently drug sensitivity was measured. To account for potential differences in growth rates and to distinguish between cytostatic and cytotoxic drug responses, the normalized growth rate inhibition (GR) metric was used to assess cell viability (FIG. 3A) (18).

[2] = target: MGLL (Homo sapiens, UniProt Q99685); assay: Recombinant protein/mass spec assay of MGLL-mediated modification; assay type: biochemical
Source text: The GSK-J4-modifying impact of MGLL is examined further via a recombinant protein/mass spec assay.

[3] = system: G402, G402-MGLL and KMRC3 cells; assay: Chromatin-modifying compounds and GSK-J4 analogues with MGLL overexpression or JZL184 co-treatment; assay type: cell-based; details: for effect of JZL184 co-treatment on sensitivity: cells expressing MGLL
Protocol: as §1
To assess whether MGLL could augment sensitivity to other inhibitors of chromatin modifying enzymes, a panel of other small molecules annotated to inhibit chromatin-related processes, targeting other KDM proteins, histone deacetylases (HDACs), and histone methyltransferases (e.g., EZH2, DOT1L) was tested. […] The effects of a number of GSK-J4 analogues (FIG. 7B) were also tested.

[4] = cited from earlier work
[5] = system: type IIA topoisomerases; details: cited from earlier work
[6] = system: BT12 and G402 cells overexpressing SLC7A11; assay: Lentiviral ORF overexpression, compound sensitivity (CellTiter-Glo, GR); assay type: cell-based; details: 72 hours
Protocol: as §1, §2, §3

[7] = system: G402 and CJM cells overexpressing AIFM2; assay: as above; assay type: cell-based; details: 72 hours
Protocol: as §1, §2, §3

[8] = system: MEWO cell line; assay: CRISPR-Cas9 knockout of AIFM2, response to compound; assay type: cell-based; details: four different sgRNAs
Protocol: (§4) Cas9 stably-infected HEC1A, MEWO, SUIT2, and WM2664 cells and sgRNAs (pXPR_BRD003 vector) targeting AIFM2, IRS2, MGLL, or control guides (non-cutting) were acquired from the GPP (FIG. 23). Cell line identities were confirmed to match parental cells using SNP fingerprinting. Virus was generated and infection carried out as described above. After puromycin selection (3 μg/mL for MEWO, 1.5 μg/mL for WM2664, 2 μg/mL for SUIT2 and HEC1A), cells were seeded in 384-well plates for compound treatment or harvested for Western blotting as described above.
(§5) As small-molecule inhibitors were not available for AIFM2 or IRS2, CRISPR-Cas9 was used to knock out these genes in proficient cell lines.

[9] = target: Monoacylglycerol lipase (MAGL) (Mus musculus, UniProt O35678); details: dose of 16 mg/kg; cited from earlier work
[10] = system: 27 cell lines; assay: GSK-J4 with or without JZL184 in 27 cell lines (CellTiter-Glo); assay type: cell-based; details: individual validation experiments or the pooled PRISM assay
Protocol: as §1

[11] = system: 242 cell lines in CTRPv1; details: JZL184 alone; cited from earlier work
[12] = system: cell lines with high expression of the nominated protein; assay: 72-hour co-treatment of index compounds with co-target inhibitors; assay type: cell-based; details: single agent
Protocol: GAPDH was used as a loading control.
as §1

[13] = system: HCC1500 cells overexpressing MCL1; assay: Lentiviral ORF overexpression, compound sensitivity (CellTiter-Glo, GR); assay type: cell-based; details: 72 hours
Protocol: as §1, §2, §3

[14] = system: WM2664 cells overexpressing MGMT; assay: Lentiviral ORF overexpression, compound sensitivity (live-cell imaging, GR); assay type: cell-based; details: 120 hours
Protocol: Cell lines were taken from viably frozen stocks of the same original provenance as for CTRP and DepMap data, with identity confirmed by SNP-based DNA fingerprinting as described previously (12, 13, 39). Cell lines were propagated using the same media and culture conditions as for CTRPv2.0 experiments. […] For live-cell imaging, cells were plated into clear-bottom plates (Corning) and imaged on an IncuCyte S3 throughout the course of the experiment. For CellTiter-Glo experiments, the initial viability of a subset of plated cells was established at the same time as compound addition using CellTiter-Glo as described previously (24). […] DMSO- and D0-normalized concentration-response curves were generated using four-parameter nonlinear regression using the drc package in R (40). […] Overall significance was assessed using the bootstrapped meanR test (n=1000 iterations), and per-concentration significance using maxR, as described by the package authors. […]
Parental cell lines were virally transduced with cDNAs that constitutively overexpressed BCL2L1, AIFM2, or MGLL (in G402 and CJM cells); ABCB1 or MGMT (in WM2664 cells); SLC7A11 (in BT12 and G402 cells); MCL1 (in HCC1500 cells); or IRS2 (in T47D cells) and subsequently drug sensitivity was measured. […]

[15] = system: KDM6 proteins; details: cited from earlier work
[16] = system: SIMA cell line; assay: KX2-391 response versus ABCB1 expression and activity (elacridar co-treatment); assay type: cell-based
Source text: FIGS. 14A to 14S present supporting data for co-inhibition experiments across additional compounds and cellular models, further to FIG. 3 above. […] FIG. 14R presents dependency data from the DepMap portal (www.depmap.org) for BCL2L1 as a function of BCL2L1 expression (blue to red) and measured sensitivity (GR50) to the BCL2L1 inhibitor WEHI-539. FIG. 14S presents dependency data from the DepMap portal (www.depmap.org) for MCL1 as a function of […] (blue to red) and measured sensitivity (GR50) to the MCL1 inhibitor S63845.
The instant approach can therefore be applied and extended in a number of ways. First, it can be used to identify potential resistance mechanisms that may contribute to relapse in initially responsive settings. Second, it can be used to prioritize combinations for increased initial efficacy if the co-target biomarker is already present, or to de-prioritize single-agent treatment where it is likely to be less efficacious, particularly where alternatives might exist. For example, drug efflux pump expression (e.g., of ABCB1, encoding P-glycoprotein) has been observed as a clinical mechanism of resistance to various chemotherapeutics (30). ABCB1 inhibitors were discontinued from clinical development, largely due to challenges with selectivity and on-target toxicity (31). […]

[17] = system: WM2664 cells; assay: CRISPR-Cas9 knockdown of IRS2, response to compound; assay type: cell-based
Protocol: as §4, §5

Sequence of Monoacylglycerol lipase (MAGL) (O35678 whole entry): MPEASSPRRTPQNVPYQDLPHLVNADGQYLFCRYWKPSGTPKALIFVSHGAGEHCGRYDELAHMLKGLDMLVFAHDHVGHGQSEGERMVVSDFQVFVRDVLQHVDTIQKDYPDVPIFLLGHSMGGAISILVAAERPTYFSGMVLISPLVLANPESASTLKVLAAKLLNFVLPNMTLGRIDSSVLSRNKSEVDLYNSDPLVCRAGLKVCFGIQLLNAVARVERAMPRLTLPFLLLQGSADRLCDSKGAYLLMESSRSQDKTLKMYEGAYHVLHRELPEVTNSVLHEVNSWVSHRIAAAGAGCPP
Sequence of MGLL (Q99685 whole entry): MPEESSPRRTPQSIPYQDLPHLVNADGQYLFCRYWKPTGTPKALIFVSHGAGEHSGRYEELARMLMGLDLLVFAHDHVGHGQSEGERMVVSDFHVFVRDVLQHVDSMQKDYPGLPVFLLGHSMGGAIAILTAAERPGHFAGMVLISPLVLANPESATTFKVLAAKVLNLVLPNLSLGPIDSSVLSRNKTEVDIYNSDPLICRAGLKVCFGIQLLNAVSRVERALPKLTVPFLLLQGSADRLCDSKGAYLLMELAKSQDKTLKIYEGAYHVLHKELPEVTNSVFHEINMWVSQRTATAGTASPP

For `CC(=O)O[C@H]1C(=O)[C@@]2(C)[C@H]([C@H](OC(=O)c3ccccc3)[C@]3(O)C[C@H](OC(=O)[C@H](O)[C@@H](NC(=O)c4ccccc4)c4ccccc4)C(C)=C1C3(C)C)[C@]1(OC(C)=O)CO[C@@H]1C[C@@H]2O` [paclitaxel], the “resistance (GR50 shift) conferred by ABCB1 overexpression” value [1] was 50 fold.
In the case of `OCCCNc1cc(N2CCc3ccccc3CC2)nc(-c2ccccn2)n1` [KDOBA67], the MGLL-mediated modification [2] was “no modification”, the “toxicity relative to GSK-J4” value ([3]; MGLL-deficient cell lines) was “equivalent toxicity” and the “effect of JZL184 co-treatment on sensitivity” value [3] was “could not be further sensitized”. The “potency relative to GSK-J4” value ([3]; resistant lines that expressed MGLL either endogenously or ectopically) was “more potent” and the cellular permeability [4] was “cell-permeable”.
In the case of `O=C(O)c1cn(C2CC2)c2cc(N3CCNCC3)c(F)cc2c1=O` [Ciprofloxacin], the “targets prokaryotes more than eukaryotic topo IIs” value [5] is given as “in excess of a thousandfold”.
For `Cc1onc(C(=O)N2CCN(C(c3ccc(Cl)cc3)c3ccc(Cl)cc3)CC2)c1[N+](=O)[O-]` [ML210], the “resistance (GR50 shift) conferred by SLC7A11 overexpression” value [6] was 8 fold, the “resistance (GR50 shift) conferred by AIFM2 overexpression” value [7] was over 500 fold and the “effect of targeting AIFM2 with sgRNAs on response” value [8] was “sensitization”.
For `O=C(Oc1ccc([N+](=O)[O-])cc1)N1CCC(C(O)(c2ccc3c(c2)OCO3)c2ccc3c(c2)OCO3)CC1` [JZL184, 4-nitrophenyl 4-(dibenzo[d][1,3]dioxol-5-yl(hydroxy)methyl)piperidine-1-carboxylate], the “blockade of MAGL” value [9] is listed as “near-complete blockade”, the “effects of JZL184 alone” value [10] is listed as “very modest effects” and the dose-dependent toxicity [11] is listed as “did not demonstrate dose-dependent toxicity”. For the same compound, the “growth impact of combination partner on its own” value [12] was “only modest growth impact”.
For `O=C(O)CCNc1cc(N2CCc3ccccc3CC2)nc(-c2ccccn2)n1` [GSK-J1], the “concentrations at which toxicity was shown” value [3] is listed as over 20 µM, the “effect of MGLL overexpression or JZL184 co-treatment/inhibition on toxicity” value [3] is listed as “not affected” and the cellular permeability [4] is listed as “cell-impermeable”.
For `CC(C)(C)c1cnc(CSc2cnc(NC(=O)C3CCNCC3)s2)o1` [SNS-032], the “resistance (GR50 shift) conferred by ABCB1 overexpression” value [1] was 25 fold.
For `CC1(C)CCC(c2ccc(Cl)cc2)=C(CN2CCN(c3ccc(C(=O)NS(=O)(=O)c4ccc(N[C@H](CCN5CCOCC5)CSc5ccccc5)c(S(=O)(=O)C(F)(F)F)c4)cc3)CC2)C1` [navitoclax], the “resistance (GR50 shift) conferred by MCL1 overexpression” value [13] was 100 fold.
For `O=NN(CCCl)C(=O)NCCCl` [carmustine], the “resistance (GR50 shift) conferred by MGMT overexpression” value [14] was 4 fold.
For `CCOC(=O)CCNc1cc(N2CCc3ccccc3CC2)nc(-c2cccnc2)n1` [GSK-J5], the “effect of MGLL overexpression on toxicity” value [3] was “reduced toxicity”, the “potency relative to GSK-J4” value [3] was “much less potent” and the “effect of JZL184 co-treatment on sensitivity” value [3] was “sensitized by JZL184”.
For `O=C(O)CCNc1cc(N2CCc3ccccc3CC2)nc(-c2cccnc2)n1` [GSK-J2], the “effect of MGLL overexpression or JZL184 co-treatment/inhibition on toxicity” value [3] is given as “not affected”, the toxicity ([3]; at 80 μM) is given as under 30% and the “activity against KDM6” value [15] is given as “inactive”.
For `O=C(Cc1ccc(-c2ccc(OCCN3CCOCC3)cc2)cn1)NCc1ccccc1` [KX2-391], the “relation of response to ABCB1” value [16] was “not correlated with ABCB1 expression or affected by the presence of active ABCB1 protein”.
With `CC(C)=CC[C@@H](O)C1=CC(=O)c2c(O)ccc(O)c2C1=O` [shikonin] the “resistance (GR50 shift) conferred by SLC7A11 overexpression” value [6] was 10 fold.
With `CS(=O)(=O)N1CCN(Cc2cc3nc(-c4cccc5[nH]ncc45)nc(N4CCOCC4)c3s2)CC1` [pictilisib] the “effect of knockdown of IRS2 on response” value [17] was “modest but consistent sensitization”.
With `CCOc1ccccc1-n1c(C(C)N2CCN(C(=O)COc3ccc(Cl)cc3)CC2)nc2ccccc2c1=O` (stereo not drawn) [erastin] the “resistance (GR50 shift) conferred by SLC7A11 overexpression” value [6] was 30 fold.
In the case of `O=C1C2CCN(CC2)C1(CO)CO` [PRIMA-1], the “resistance (GR50 shift) conferred by SLC7A11 overexpression” value [6] was 20 fold and the “resistance (GR50 shift) conferred by AIFM2 overexpression” value [7] was “approximately threefold”.
With `CC[C@@H]1C(=O)N(C)c2cnc(Nc3ccc(C(=O)NC4CCN(C)CC4)cc3OC)nc2N1C1CCCC1` [BI-2536] the “resistance (GR50 shift) conferred by ABCB1 overexpression” value [1] was 40 fold.
